Changes are numbered by the printed parent chain.

The nature of series [1]: Drug level in C57BL/6J mouse brain at 100 mg/kg, ip measured after 1 hr. Type of series: ADME, organism-based. The settings on record: read-out: Drug uptake.
Series [2] can be described thus: Protein binding in human plasma assessed as unbound fraction at 5 uL measured after 4 hrs by LC-MS/MS based equilibrium dialysis method. Type of series: ADME, cell-free.
Series [3] has as its target T1, Muscarinic acetylcholine receptor M4 (Homo sapiens, UniProt P08173).
T1 sequence (P08173 whole entry): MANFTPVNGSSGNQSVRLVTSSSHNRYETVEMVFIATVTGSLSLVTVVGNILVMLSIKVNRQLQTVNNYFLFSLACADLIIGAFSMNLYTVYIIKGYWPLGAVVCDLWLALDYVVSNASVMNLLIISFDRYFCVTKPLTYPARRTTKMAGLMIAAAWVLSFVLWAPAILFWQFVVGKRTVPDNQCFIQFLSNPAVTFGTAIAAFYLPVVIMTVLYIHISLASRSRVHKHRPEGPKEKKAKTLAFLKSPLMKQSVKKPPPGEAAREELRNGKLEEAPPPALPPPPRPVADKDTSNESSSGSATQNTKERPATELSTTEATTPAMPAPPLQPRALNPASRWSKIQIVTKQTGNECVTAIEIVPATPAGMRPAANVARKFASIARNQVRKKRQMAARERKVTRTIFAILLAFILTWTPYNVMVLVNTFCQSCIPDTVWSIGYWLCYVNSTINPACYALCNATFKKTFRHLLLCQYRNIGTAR
The series is described as follows: Positive allosteric modulation of human M4 receptor expressed in CHO cells co-expressing Gqi5 assessed as increase in acetylcholine-induced calcium mobilization pretreated for 2.5 mins followed by acetylcholine addition and measured after 1 min by Fluo-4-AM dye based assay. Type of series: functional, cell-based.

In series [4] the target is T2, Muscarinic acetylcholine receptor M1 (Rattus norvegicus, UniProt P08482).
T2 sequence (P08482 whole entry): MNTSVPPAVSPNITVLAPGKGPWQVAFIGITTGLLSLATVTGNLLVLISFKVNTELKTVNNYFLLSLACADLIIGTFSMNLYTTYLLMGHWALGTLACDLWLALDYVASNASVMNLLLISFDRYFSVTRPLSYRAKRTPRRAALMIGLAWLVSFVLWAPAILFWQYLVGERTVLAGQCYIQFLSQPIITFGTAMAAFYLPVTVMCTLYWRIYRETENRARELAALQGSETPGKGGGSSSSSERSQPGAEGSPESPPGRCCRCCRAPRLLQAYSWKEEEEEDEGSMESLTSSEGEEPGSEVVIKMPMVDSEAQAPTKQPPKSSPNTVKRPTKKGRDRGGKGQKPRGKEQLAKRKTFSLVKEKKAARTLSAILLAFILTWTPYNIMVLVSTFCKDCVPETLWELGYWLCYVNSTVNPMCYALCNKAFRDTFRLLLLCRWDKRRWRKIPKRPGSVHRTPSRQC
The series is described as follows: Agonist activity at rat M1 receptor expressed in CHO cells assessed as increase in calcium mobilization measured after 2.5 mins by Fluo-4-AM dye based assay. Type of series: functional, cell-based.

Series [5] has as its target T3, Muscarinic acetylcholine receptor M2 (Homo sapiens, UniProt P08172).
T3 sequence (P08172 whole entry): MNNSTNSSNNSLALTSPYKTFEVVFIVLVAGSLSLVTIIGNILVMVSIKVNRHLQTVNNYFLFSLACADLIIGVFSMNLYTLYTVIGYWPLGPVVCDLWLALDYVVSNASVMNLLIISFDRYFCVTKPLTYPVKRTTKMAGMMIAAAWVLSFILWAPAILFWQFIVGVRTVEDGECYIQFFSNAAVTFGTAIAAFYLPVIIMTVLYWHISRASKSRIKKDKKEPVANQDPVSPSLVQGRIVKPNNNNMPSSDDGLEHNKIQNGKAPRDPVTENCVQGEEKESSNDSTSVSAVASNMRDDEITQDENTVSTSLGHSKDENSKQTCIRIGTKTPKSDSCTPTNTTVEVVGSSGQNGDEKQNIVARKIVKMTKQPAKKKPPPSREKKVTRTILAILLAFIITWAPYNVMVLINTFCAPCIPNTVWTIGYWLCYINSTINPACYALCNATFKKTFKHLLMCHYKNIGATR
The series is described as follows: Positive allosteric modulation of human M2 receptor expressed in CHO cells co-expressing Gqi5 assessed as increase in acetylcholine-induced calcium mobilization pretreated for 2.5 mins followed by acetylcholine addition and measured after 1 min by Fluo-4-AM dye based assay. Type of series: functional, cell-based.

Series [6] can be described thus: Protein binding in rat brain assessed as unbound fraction. Type of series: ADME, tissue-based.
Series [7] relates to P-gp. The series is described as follows: Substrate activity at P-gp (unknown origin) assessed as apparent permeability. Particulars: human, not told. Type of series: ADME.
The target in series [8] is T4, Muscarinic acetylcholine receptor M1 (Homo sapiens, UniProt P11229).
T4 sequence (P11229 whole entry): T2 sequence (P08482 whole entry) with V5A, S254T, S309P, K320R, G337A, V413I
Nature of the series: (§1) Positive allosteric modulation of human M1 receptor expressed in CHO cells assessed as increase in acetylcholine-induced calcium mobilization pretreated for 2.5 mins followed by acetylcholine addition and measured after 1 min by Fluo-4-AM dye based assay. Type of series: functional, cell-based.

The target in series [9] is T5, Muscarinic acetylcholine receptor M1 (Homo sapiens) (UniProt P11229).
T5 sequence (whole entry): T2 sequence (P08482 whole entry) with V5A, S254T, S309P, K320R, G337A, V413I
The series is described as §1. Type of series: functional, cell-based.

A short description of series [10]: Total brain to plasma partition coefficient, Kp in C57BL/6J mouse at 100 mg/kg, ip after 1 hr by LC-MS/MS analysis. Type of series: ADME, organism-based. Particulars: brain and plasma.

Take `Cn1cc(-c2ccc(Cc3cc(C(=O)NC4CCOCC4)nc4c3ccn4C)cn2)cn1`: the concentration at 1 h in series [1] amounted to 7 µM. The fraction unbound at 4 h, 5 uL in [2] came out at 0.04. Moreover, the EC50 in series [3] is over 30 µM; in [4] (cho, read-out: EC50) it was over 10 µM; in series [4] (read-out: pEC50 (converted)) it was over 10 µM; in series [5], over 30 µM; in series [8], 0.32 µM. Also, the fraction unbound in series [6] came to 0.08. For the same compound, the Papp in series [7] was found to be 12 ×10⁻⁶ cm/s. Further, the %max in series [9] amounted to 84%. In series [10], this compound displayed a Kp at 1 h of 0.16.

These data come from ChEMBL document CHEMBL4229572, “VU6007477, a Novel M1 PAM Based on a Pyrrolo[2,3-b]pyridine Carboxamide Core Devoid of Cholinergic Adverse Events” (ACS Med Chem Lett, 2018).
